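Five concentrations, 48 hours, 96-well plates. GI50 marks 50% less growth. Definition used: TGI = concentration required for complete inhibition of growth.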
Columns and labels:
Assay in all cases: NCI tumour cell line growth inhibition, 48 h
[1] = test system: MCF7 breast
[2] = test system: HOP-92 NSCLC
[3] = test system: HCC-2998 colon
[4] = test system: SK-MEL-2 melanoma
[5] = test system: HCT-116 colon
[6] = test system: SF-295 CNS
[7] = test system: NCI-H522 lung
[8] = test system: SW-620 colon
[9] = test system: MALME-3M melanoma
[10] = test system: HS 578T breast
[11] = test system: SK-MEL-28 melanoma
[12] = test system: LOX IMVI melanoma
[13] = test system: CAKI-1 renal
[14] = test system: K-562 leukemia
[15] = test system: BT-549 breast
[16] = test system: NCI-H23 lung
[17] = test system: UACC-257 melanoma
[18] = test system: RXF 393 renal
[19] = test system: MOLT-4 leukemia
[20] = test system: DU-145 prostate
[21] = test system: SF-268 CNS
[22] = test system: EKVX NSCLC
[23] = test system: T-47D breast
[24] = test system: SK-MEL-5 melanoma
[25] = test system: OVCAR-8 ovarian
[26] = test system: HOP-62 NSCLC
[27] = test system: MDA-MB-435
[28] = test system: NCI/ADR-RES ovarian
[29] = test system: SR leukemia
[30] = test system: OVCAR-5 ovarian
[31] = test system: TK-10 renal
[32] = test system: HL-60(TB) leukemia
[33] = test system: CCRF-CEM leukemia
[34] = test system: NCI-H460 lung
[35] = test system: UACC-62 melanoma
[36] = test system: A549 NSCLC
[37] = test system: U251 CNS
[38] = test system: COLO 205 colon
[39] = test system: SN12C renal
[40] = test system: HCT-15 colon
[41] = test system: A498 renal
[42] = test system: SNB-19 CNS
[43] = test system: PC-3 prostate
[44] = test system: NCI-H226 lung
[45] = test system: RPMI-8226 leukemia
[46] = test system: 786-0 renal
[47] = test system: UO-31 renal
[48] = test system: SNB-75 CNS
[49] = test system: ACHN renal
[50] = test system: M14 melanoma
[51] = test system: MDA-MB-468 breast
[52] = test system: IGROV1 ovarian
[53] = test system: KM12 colon
[54] = test system: SK-OV-3 ovarian
[55] = test system: MDA-MB-231 breast
[56] = test system: OVCAR-3 ovarian
[57] = test system: SF-539 CNS
[58] = test system: OVCAR-4 ovarian
[59] = test system: HT29 colon

CCc1ccccc1NC(=O)N/C(N)=N/c1nc2ccccc2s1
GI50 [1]: 0.0329 µM
TGI [1]: 12.3 µM
GI50 [2]: 3.09 µM
TGI [2]: 29.6 µM
GI50 [3]: 0.0291 µM
TGI [3]: 3.05 µM
GI50 [4]: 0.0338 µM
TGI [4]: 10.8 µM
GI50 [5]: 0.0377 µM
TGI [5]: 1.47 µM
GI50 [6]: 0.0234 µM
TGI [6]: 2.04 µM
GI50 [7]: < 0.0167 µM
TGI [7]: 0.09 µM
GI50 [8]: 0.0422 µM
TGI [8]: 15.7 µM
GI50 [9]: 0.0622 µM
TGI [9]: 11.3 µM
GI50 [10]: 0.0281 µM
TGI [10]: 7.27 µM
GI50 [11]: 2.83 µM
TGI [11]: 21.3 µM
GI50 [12]: 0.0431 µM
TGI [12]: 4.62 µM
GI50 [13]: 0.0631 µM
TGI [13]: 7.2 µM
GI50 [14]: 0.0233 µM
TGI [14]: 14.4 µM
GI50 [15]: 0.091 µM
TGI [15]: 1.79 µM
GI50 [16]: 0.0454 µM
TGI [16]: 5.48 µM
GI50 [17]: 4.67 µM
TGI [17]: > 54.4 µM
GI50 [18]: 0.0225 µM
TGI [18]: 7.53 µM
GI50 [19]: 0.0628 µM
TGI [19]: 18.7 µM
GI50 [20]: 0.0483 µM
TGI [20]: 2.5 µM
GI50 [21]: 0.336 µM
TGI [21]: > 100 µM
GI50 [22]: 0.0503 µM
TGI [22]: 16.1 µM
GI50 [23]: 15.1 µM
TGI [23]: > 100 µM
GI50 [24]: 0.0311 µM
TGI [24]: 0.116 µM
GI50 [25]: 0.037 µM
TGI [25]: 3.52 µM
GI50 [26]: 0.0696 µM
TGI [26]: 4.55 µM
GI50 [27]: < 0.0146 µM
TGI [27]: 0.0389 µM
GI50 [28]: 0.0244 µM
TGI [28]: 0.0643 µM
GI50 [29]: 0.12 µM
TGI [29]: 21.6 µM
GI50 [30]: 0.0533 µM
TGI [30]: 12 µM
GI50 [31]: 4.49 µM
TGI [31]: 50 µM
GI50 [32]: 0.0334 µM
TGI [32]: 6.31 µM
GI50 [33]: 0.0382 µM
TGI [33]: 13.5 µM
GI50 [34]: 0.0354 µM
TGI [34]: 3.82 µM
GI50 [35]: 0.0383 µM
TGI [35]: 22.7 µM
GI50 [36]: 0.064 µM
TGI [36]: > 38.8 µM
GI50 [37]: 0.037 µM
TGI [37]: 5.64 µM
GI50 [38]: 0.0294 µM
TGI [38]: 0.094 µM
GI50 [39]: 0.0438 µM
TGI [39]: 6.91 µM
GI50 [40]: 0.0293 µM
TGI [40]: 7.03 µM
GI50 [41]: 16.4 µM
TGI [41]: 45.6 µM
GI50 [42]: 0.0517 µM
TGI [42]: 14.6 µM
GI50 [43]: 0.0528 µM
TGI [43]: 18.8 µM
GI50 [44]: 0.144 µM
TGI [44]: 1.52 µM
GI50 [45]: 0.0445 µM
TGI [45]: 21.1 µM
GI50 [46]: 0.0898 µM
TGI [46]: 5.14 µM
GI50 [47]: 0.0979 µM
TGI [47]: 34.6 µM
GI50 [48]: < 0.018 µM
TGI [48]: 4.64 µM
GI50 [49]: 0.0793 µM
TGI [49]: 6.21 µM
GI50 [50]: 0.0286 µM
TGI [50]: 0.911 µM
GI50 [51]: 0.0233 µM
TGI [51]: 0.0625 µM
GI50 [52]: 0.0567 µM
TGI [52]: 15.2 µM
GI50 [53]: 0.0381 µM
TGI [53]: 11.1 µM
GI50 [54]: 0.15 µM
TGI [54]: 33.6 µM
GI50 [55]: 0.0405 µM
TGI [55]: 0.598 µM
GI50 [56]: 0.0396 µM
TGI [56]: 1.55 µM
GI50 [57]: 0.0211 µM
TGI [57]: 0.0642 µM
GI50 [58]: 1.67 µM
TGI [58]: 24.7 µM
GI50 [59]: 0.0316 µM
TGI [59]: 0.135 µM

CCCCSc1nc(Nc2ccc(S(N)(=O)=O)cc2)c(C#N)c(-c2ccc(Cl)cc2)n1
GI50 [1]: 4.59 µM
TGI [1]: > 100 µM
GI50 [2]: 1.01 µM
TGI [2]: 4.71 µM
GI50 [3]: 6.56 µM
TGI [3]: 78.3 µM
GI50 [4]: 27.6 µM
TGI [4]: > 100 µM
GI50 [5]: 2 µM
TGI [5]: 4.35 µM
GI50 [6]: 1.82 µM
TGI [6]: 3.78 µM
GI50 [7]: 10.6 µM
TGI [7]: 70.5 µM
GI50 [8]: 3.3 µM
TGI [8]: 12.4 µM
GI50 [9]: 3.03 µM
TGI [9]: 11 µM
GI50 [10]: 2.46 µM
TGI [10]: 8.71 µM
GI50 [11]: 5.98 µM
TGI [11]: 31.1 µM
GI50 [12]: 1.72 µM
TGI [12]: 3.33 µM
GI50 [13]: 1.94 µM
TGI [13]: 4.8 µM
GI50 [15]: 17.9 µM
TGI [15]: 62 µM
GI50 [16]: 3.43 µM
TGI [16]: 12.4 µM
GI50 [17]: 14.9 µM
TGI [17]: > 100 µM
GI50 [18]: 1.81 µM
TGI [18]: 5.12 µM
GI50 [19]: 3.15 µM
TGI [19]: 20.1 µM
GI50 [20]: 4.95 µM
TGI [20]: 18 µM
GI50 [21]: 5.64 µM
TGI [21]: 42.1 µM
GI50 [22]: 3.51 µM
TGI [22]: 19.7 µM
GI50 [23]: 19.9 µM
TGI [23]: > 100 µM
GI50 [24]: 8.46 µM
TGI [24]: 33.5 µM
GI50 [25]: 2.08 µM
TGI [25]: 4.93 µM
GI50 [26]: 2.18 µM
TGI [26]: 4.97 µM
GI50 [27]: 4.01 µM
TGI [27]: > 100 µM
GI50 [28]: 2.98 µM
TGI [28]: 9.58 µM
GI50 [30]: 4.77 µM
TGI [30]: 22.9 µM
GI50 [31]: 2.32 µM
TGI [31]: 6.86 µM
GI50 [32]: 50.6 µM
TGI [32]: > 100 µM
GI50 [33]: 7.69 µM
TGI [33]: > 100 µM
GI50 [34]: 2.08 µM
TGI [34]: 4.66 µM
GI50 [35]: 2.8 µM
TGI [35]: 8.98 µM
GI50 [36]: 2.61 µM
TGI [36]: 9.81 µM
GI50 [37]: 1.58 µM
TGI [37]: 3.28 µM
GI50 [38]: 13.4 µM
TGI [38]: 42.9 µM
GI50 [39]: 2.08 µM
TGI [39]: 8.71 µM
GI50 [41]: 6.41 µM
TGI [41]: 27.8 µM
GI50 [42]: 3.65 µM
TGI [42]: 15.7 µM
GI50 [43]: 5.39 µM
TGI [43]: 26 µM
GI50 [44]: 2.29 µM
TGI [44]: 6 µM
GI50 [45]: 5.17 µM
TGI [45]: > 100 µM
GI50 [46]: 1.98 µM
TGI [46]: 5.11 µM
GI50 [47]: 2 µM
TGI [47]: 6.33 µM
GI50 [48]: 1.1 µM
TGI [48]: 3.22 µM
GI50 [49]: 1.88 µM
TGI [49]: 3.67 µM
GI50 [50]: 2.36 µM
TGI [50]: 6.09 µM
GI50 [51]: 14.5 µM
TGI [51]: 36.1 µM
GI50 [52]: 5.79 µM
TGI [52]: 41.3 µM
GI50 [53]: 6.26 µM
TGI [53]: 30.2 µM
GI50 [54]: 3.63 µM
TGI [54]: 14.1 µM
GI50 [55]: 2.14 µM
TGI [55]: 5.3 µM
GI50 [56]: 2.23 µM
TGI [56]: 4.91 µM
GI50 [57]: 1.62 µM
TGI [57]: 3.23 µM
GI50 [58]: 1.83 µM
TGI [58]: 3.89 µM
GI50 [59]: 2.73 µM
TGI [59]: 9.84 µM

From PubChem BioAssay (NCI)
